Consider 18 molecules from patent US20190218207A1, “3-(Pyridin-3-yl)-Acrylamide and N-(Pyridin-3-yl)-Acrylamide Derivatives and Their Use as PAK or NAMPT Modulators” (Karyopharm Therapeutics Inc., priority 2015, published 2019).

Where two headings read alike, the source gives them in different places. Bounds are passed on as bounds.

One test has as its system 3T3 cells. Kind of test: MTT cell proliferation assay, 3T3 cells. The format is cell-based, mouse. To be noted: 3T3 fibroblast cells, incubation approximately 64-72 hours. On the procedure: (§1) The MTT cell proliferation assay was used to study the cytotoxic properties of the compounds. The assay was performed according to the method described by Roche Molecular Biochemicals, with minor modifications. The assay is based on the cleavage of the tetrazolium salt, MTT, in the presence of an electron-coupling reagent. The water-insoluble formazan salt produced must be solubilized in an additional step. Cells grown in a 96-well tissue culture plate were incubated with the MTT solution for approximately 4 hours. After this incubation period, a water-insoluble formazan dye formed. After solubilization, the formazan dye was quantitated using a scanning multi-well spectrophotometer (ELISA reader). […] The cells were seeded at 5,000-10,000 cells in each well of 96-well plate in 100 μL of fresh culture medium and were allowed to attach overnight. The stock solutions of the compounds were diluted in […] cell culture medium to obtain eight concentrations of each test compound, ranging from 1 nM to 30 μM. […] All optical densities were measured at 490 nm using a Vmax Kinetic Microplate Reader (Molecular Devices). In most cases, the assay was performed in duplicate and the results were presented as a mean percent inhibition to the negative control±SE. The following formula was used to calculate the percent of inhibition: Inhibition (%)=(1-(ODo/OD))×100.
(§2) The compounds were tested against MS751, Z138 and 3T3 cells. The MS751 cell line is derived from a metastasis to lymph node of human cervix from a patient diagnosed with squameous cell carcinoma of the cervix. The Z138 cell line is a mature B-cell acute lymphoblastic leukemia cell line derived from a patient with chronic lumphocytic leukemia. 3T3 cells are standard fibroblast cells; they were originally isolated from Swiss mouse embryo tissue.
In general terms: Formazan colour is commonly taken as a measure of viable cells.

Another test relates to Z138 cells. Kind of test: MTT cell proliferation assay, Z138 cells. The format is cell-based, human. Here is the method: as §1, §2
The next test concerns MS751 cells. Nature of the test: MTT cell proliferation assay, MS751 cells. The format is cell-based, human. The following applies: Homo sapiens, incubation approximately 64-72 hours, read-out: MTT Assay IC50, MS 751. On the procedure:
as §1, §2

Setting [1] is: Homo sapiens, Z-138, incubation approximately 64-72 hours.

The IC50 is the point on the concentration scale where inhibition reaches its midpoint. As for “2-(6-aminopyridin-3-yloxy)-N-((4-(3-(4-fluorophenyl)-4′-(4,4-difluoropiperidine-1-carbonyl)biphenyl-4-yl)furan-2-yl)methyl)acetamide [Compound A028]”, the IC50 in the test on 3T3 cells is over 10000 nM; in the test with Z138 cells (incubation approximately 64-72 hours, read-out: MTT Assay IC50, Z-138), under 1000 nM.
For the molecule `Nc1ccc(/C=C/C(=O)NCc2ccc(-c3ccc(-c4ccc(C(=O)N5CCC(F)(F)CC5)cn4)cc3C(F)(F)F)o2)cn1` [Compound A001, (E)-3-(6-aminopyridin-3-yl)-N-((5-(4-(5-(4,4-difluoropiperidine-1-carbonyl)pyridin-2-yl)-2-(trifluoromethyl)phenyl)furan-2-yl)methyl)acrylamide], the IC50 in the test with MS751 cells is under 1000 nM; in the test on 3T3 cells (Mus musculus, NIH3T3), 1000 to 5000 nM; with Z138 cells (setting [1]) it was under 1000 nM.
Consider `O=C(/C=C/c1cccnc1)NCc1ccc(-c2ccc(-c3ccc(C(=O)N4CCC(F)(F)CC4)cn3)cc2C(F)(F)F)o1` [Compound A002, (E)-N-((5-(4-(5-(4,4-difluoropiperidine-1-carbonyl)pyridin-2-yl)-2-(trifluoromethyl)phenyl)furan-2-yl)methyl)-3-(pyridin-3-yl)acrylamide], for which the IC50 in the test with MS751 cells is under 1000 nM; with 3T3 cells (Mus musculus, NIH3T3), over 10000 nM; in the test on Z138 cells (setting [1]), under 1000 nM.
As to `Nc1ccc(/C=C/C(=O)NCc2ccc(-c3ccc(-c4ccc(C(=O)N5CC(F)(F)C5)cn4)cc3C(F)(F)F)o2)cn1` [Compound A003, (E)-3-(6-aminopyridin-3-yl)-N-((5-(4-(5-(3,3-difluoroazetidine-1-carbonyl)pyridin-2-yl)-2-(trifluoromethyl)phenyl)furan-2-yl)methyl)acrylamide], the IC50 in the test with MS751 cells was under 1000 nM; in the test with 3T3 cells (Mus musculus, NIH3T3), under 1000 nM; in the test with Z138 cells (setting [1]), under 1000 nM.
Regarding `Nc1ccc(/C=C/C(=O)NCc2ccc(-c3ccc(-c4ccc(C(=O)N5CCC(F)(F)CC5)cn4)cc3C(F)(F)F)s2)cn1` [Compound A005, (E)-3-(6-aminopyridin-3-yl)-N-((5-(4-(5-(4,4-difluoropiperidine-1-carbonyl)pyridin-2-yl)-2-(trifluoromethyl)phenyl)thiophen-2-yl)methyl)acrylamide], the IC50 in the test with MS751 cells was under 1000 nM; in the test with 3T3 cells (Mus musculus, NIH3T3), 1000 to 5000 nM; with Z138 cells (setting [1]), under 1000 nM.
On to `Nc1ccc(/C=C/C(=O)NCc2ccc(-c3ccc(-c4ccc(C(=O)N5CCC(F)(F)CC5)cn4)cc3Cl)o2)cn1` [Compound A006, (E)-3-(6-aminopyridin-3-yl)-N-((5-(2-chloro-4-(5-(4,4-difluoropiperidine-1-carbonyl)pyridin-2-yl)phenyl)furan-2-yl)methyl)acrylamide], for which the IC50 was under 1000 nM in the test with MS751 cells; 1000 to 5000 nM with 3T3 cells (Mus musculus, NIH3T3); under 1000 nM with Z138 cells (setting [1]).
Consider `Nc1ccc(/C=C/C(=O)NCc2ccc(-c3ccc(-c4ccc(C(=O)N5CCC(F)(F)CC5)cc4F)cc3-c3ccc(F)cc3)o2)cn1` [Compound A007, (E)-3-(6-aminopyridin-3-yl)-N-((5-(4-(4,4-difluoropiperidine-1-carbonyl)-2,4″-difluoro-[1,1′:3′,1″-terphenyl]-4′-yl)furan-2-yl)methyl)acrylamide], for which the IC50 in the test with MS751 cells is under 1000 nM; in the test on 3T3 cells (Mus musculus, NIH3T3), 5000 to 10000 nM; in the test with Z138 cells (setting [1]), under 1000 nM.
`Nc1ccc(/C=C/C(=O)NCc2ccc(-c3ccc(-c4ccc(C(=O)N5CCC(F)(F)CC5)cc4)cc3-c3ccc(F)cc3)o2)cn1` [Compound A008, (E)-3-(6-aminopyridin-3-yl)-N-((5-(4-(4,4-difluoropiperidine-1-carbonyl)-4″-fluoro-[1,1′:3′,1″-terphenyl]-4′-yl)furan-2-yl)methyl)acrylamide]: the IC50 with MS751 cells is under 1000 nM; with 3T3 cells (Mus musculus, NIH3T3), 5000 to 10000 nM; with Z138 cells (setting [1]), under 1000 nM.
Consider `Nc1ccc(/C=C/C(=O)NCc2ccc(-c3ccc(-c4ccc(C(=O)N5CCC(F)(F)CC5)cc4)cc3-c3cccc(Cl)c3)o2)cn1` [Compound A009, (E)-3-(6-aminopyridin-3-yl)-N-((5-(3″-chloro-4-(4,4-difluoropiperidine-1-carbonyl)-[1,1′:3′,1″-terphenyl]-4′-yl)furan-2-yl)methyl)acrylamide], for which the IC50 in the test with MS751 cells is under 1000 nM; in the test on 3T3 cells (Mus musculus, NIH3T3), 1000 to 5000 nM; in the test on Z138 cells (setting [1]), under 1000 nM.
With `Nc1ccc(/C=C/C(=O)NCc2nnc(-c3ccc(-c4ccc(C(=O)N5CCC(F)(F)CC5)cc4)cc3-c3ccc(F)cc3)o2)cn1` [Compound A010, (E)-3-(6-aminopyridin-3-yl)-N-((5-(4-(4,4-difluoropiperidine-1-carbonyl)-4″-fluoro-[1,1′:3′,1″-terphenyl]-4′-yl)-1,3,4-oxadiazol-2-yl)methyl)acrylamide], the IC50 in the test with MS751 cells is under 1000 nM; in the test on 3T3 cells (Mus musculus, NIH3T3), over 10000 nM; in the test on Z138 cells (setting [1]) it was under 1000 nM.
As for `Nc1ccc(/C=C/C(=O)NCc2ccc(-c3ccc(-c4ccc(C(=O)N5CCC(F)(F)CC5)cc4)cc3-c3ccc(F)cc3)[nH]2)cn1` [Compound A011, (E)-3-(6-aminopyridin-3-yl)-N-((5-(4-(4,4-difluoropiperidine-1-carbonyl)-4″-fluoro-[1,1′:3′,1″-terphenyl]-4′-yl)-1H-pyrrol-2-yl)methyl)acrylamide], the IC50 is 1000 to 5000 nM in the test on MS751 cells; over 10000 nM in the test with 3T3 cells (Mus musculus, NIH3T3); under 1000 nM with Z138 cells (setting [1]).
In the same order, the values of `Cc1c(CNC(=O)/C=C/c2ccc(N)nc2)sc(-c2ccc(-c3ccc(C(=O)N4CC(F)C4)cc3)cc2-c2ccc(F)cc2)c1C` [Compound A013, (E)-3-(6-aminopyridin-3-yl)-N-((5-(4″-fluoro-4-(3-fluoroazetidine-1-carbonyl)-[1,1′:3′,1″-terphenyl]-4′-yl)-3,4-dimethylthiophen-2-yl)methyl)acrylamide] are 1000 to 5000 nM, over 10000 nM and under 1000 nM.
In the same order, the values of `Cc1cc(-c2ccc(-c3ccc(C(=O)N4CC(F)C4)cc3)cc2C(F)(F)F)sc1CNC(=O)/C=C/c1ccc(N)nc1` [Compound A014, (E)-3-(6-aminopyridin-3-yl)-N-((5-(4′-(3-fluoroazetidine-1-carbonyl)-3-(trifluoromethyl)-[1,1′-biphenyl]-4-yl)-3-methylthiophen-2-yl)methyl)acrylamide] are under 1000 nM, 5000 to 10000 nM and under 1000 nM.
The matching figures for `Nc1ccc(/C=C/C(=O)NCc2ccc(-c3ccc(-c4ccc(C(=O)N5CC(F)(F)C5)cc4)cc3C(F)(F)F)o2)cn1` [Compound A015, (E)-3-(6-aminopyridin-3-yl)-N-((5-(4′-(3,3-difluoroazetidine-1-carbonyl)-3-(trifluoromethyl)-[1,1′-biphenyl]-4-yl)furan-2-yl)methyl)acrylamide]: under 1000 nM, over 10000 nM and under 1000 nM.
For `Cc1c(CNC(=O)/C=C/c2ccc(N)nc2)sc(-c2ccc(-c3ccc(C(=O)N4CC(F)C4)cc3)cc2C(F)(F)F)c1C` [Compound A016, (E)-3-(6-aminopyridin-3-yl)-N-((5-(4′-(3-fluoroazetidine-1-carbonyl)-3-(trifluoromethyl)-[1,1′-biphenyl]-4-yl)-3,4-dimethylthiophen-2-yl)methyl)acrylamide], the half-inhibitory concentration (IC50) in the test on MS751 cells is over 10000 nM; in the test with 3T3 cells (Mus musculus, NIH3T3) it was over 10000 nM; in the test with Z138 cells (setting [1]), over 10000 nM.
Turning to `Cc1c(CNC(=O)/C=C/c2ccc(N)nc2)sc(-c2ccc(C3CC3C(=O)N3CC(F)C3)cc2C(F)(F)F)c1C` (stereo not shown) [Compound A017, (E)-3-(6-aminopyridin-3-yl)-N-((5-(4-(2-(3-fluoroazetidine-1-carbonyl)cyclopropyl)-2-(trifluoromethyl)phenyl)-3,4-dimethylthiophen-2-yl)methyl)acrylamide], the IC50 with MS751 cells was 1000 to 5000 nM; in the test on 3T3 cells (Mus musculus, NIH3T3), over 10000 nM; in the test with Z138 cells (setting [1]), under 1000 nM.
In the same order, the values of `Nc1ccc(/C=C/C(=O)NCc2nnc(-c3ccc(-c4ccc(C(=O)N5CC(F)(F)C5)cc4)cc3C(F)(F)F)o2)cn1` [Compound A018, (E)-3-(6-aminopyridin-3-yl)-N-((5-(4′-(3,3-difluoroazetidine-1-carbonyl)-3-(trifluoromethyl)-[1,1′-biphenyl]-4-yl)-1,3,4-oxadiazol-2-yl)methyl)acrylamide] are under 1000 nM, over 10000 nM and under 1000 nM.
In the case of `Nc1ccc(/C=C/C(=O)NCc2ccc(-c3cc4c(C(=O)N5CCC(F)(F)CC5)c[nH]c4cc3C(F)(F)F)o2)cn1` [Compound A029, (E)-3-(6-aminopyridin-3-yl)-N-((5-(3-(4,4-difluoropiperidine-1-carbonyl)-6-(trifluoromethyl)-1H-indol-5-yl)furan-2-yl)methyl)acrylamide], the IC50 with 3T3 cells (Mus musculus, NIH3T3) is over 10000 nM; in the test with Z138 cells (setting [1]) it was under 1000 nM.
